This is an account of results in US20090209528A1, “SUBSTITUTED TETRAHYDROISOQUINOLINE COMPOUND, THEIR PREPARATION AND USE IN MEDICAMENTS” (LABORATORIOS DEL DR. ESTEVE S.A., priority 2006, published 2009).

The target of this assay is T1, 5HT6-human recombinant receptor (Homo sapiens, UniProt P50406).
T1 construct: purchased Receptor Biology; host or cells: HEK-293 cell membranes
As to the kind of experiment: Binding to serotonin receptor 5-HT6 ([3H]-LSD displacement). To be noted: radioligand [3H]-LSD 2.7 nM; for inhibition at 0.01 µM / inhibition at 0.1 µM: 1 h; for Ki: membranes of HEK-293 cells expressing the receptor, 60 min, 37° C. The protocol:
Cell membranes of HEK-293 cells expressing the 5HT6-human recombinant receptor were supplied by Receptor Biology. In said membranes the receptor concentration is 2.18 pmol/mg protein and the protein concentration is 9.17 mg/ml. The experimental protocol follows the method of B. L. Roth et al. [B. L. Roth, S. C. Craigo, M. S. Choudhary, A. Uluer, F. J. Monsma, Y. Shen, H. Y. Meltzer, D. R. Sibley: Binding of Typical and Atypical Antipsychotic Agents to 5-Hydroxytryptamine-6 and Hydroxytryptamine-7 Receptors. The Journal of Pharmacology and Experimental Therapeutics, 1994, 268, 1403] with the following slight changes. The respective part of the literature description is hereby incorporated by reference and forms part of the disclosure.
The commercial membrane is diluted (1:40 dilution) with the binding buffer: 50 mM Tris-HCl, 10 mM MgCl2, 0.5 mM EDTA (pH 7.4). The radioligand used is [^3H]-LSD at a concentration of 2.7 nM with a final volume of 200 μl. Incubation is initiated by adding 100 μl of membrane suspension, (≈22.9 μg membrane protein), and is prolonged for 60 minutes at a temperature of 37° C. The incubation is ended by fast filtration in a Brandel Cell Harvester through fiber glass filters made by Schleicher & Schuell GF 3362 pretreated with a solution of polyethylenimine at 0.5%. The filters are washed three times with three milliliters of buffer Tris-HCl 50 mM pH 7.4. The filters are transferred to flasks and 5 ml of Ecoscint H liquid scintillation cocktail are added to each flask. The flasks are allowed to reach equilibrium for several hours before counting with a Wallac Winspectral 1414 scintillation counter. Non-specific binding is determined in the presence of 100 μM of serotonin. Tests were made in triplicate. The inhibition constants (Ki, nM) were calculated by non-linear regression analysis using the program EBDA/LIGAND described in Munson and Rodbard, Analytical Biochemistry, 1980, 107, 220, the respective part of which is hereby incorporated by reference and forms part of the disclosure.

Structures can show the parent of a compound that is named as a salt.

The term inhibition denotes the percentage by which the read-out fell short of the control. For orientation: Ki means a measure of affinity in units of concentration, obtained from inhibition or displacement.

T1 sequence (P50406 whole entry): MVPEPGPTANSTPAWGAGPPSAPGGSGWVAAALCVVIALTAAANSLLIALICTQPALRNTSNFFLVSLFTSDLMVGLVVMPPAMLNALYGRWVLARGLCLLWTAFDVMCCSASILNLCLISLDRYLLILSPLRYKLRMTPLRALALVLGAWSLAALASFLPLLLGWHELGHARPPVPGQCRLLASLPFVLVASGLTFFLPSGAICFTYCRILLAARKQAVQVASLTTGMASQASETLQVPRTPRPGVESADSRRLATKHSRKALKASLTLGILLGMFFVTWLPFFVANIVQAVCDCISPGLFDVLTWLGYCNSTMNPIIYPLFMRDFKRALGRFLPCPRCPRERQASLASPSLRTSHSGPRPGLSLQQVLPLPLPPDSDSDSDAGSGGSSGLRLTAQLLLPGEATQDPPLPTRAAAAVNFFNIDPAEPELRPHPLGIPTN

Take `O=S(=O)(Nc1ccc2c(c1)CCNC2)c1ccc(Cl)c2ccccc12` [Example 31, 4-Chloro-naphthalene-1-sulfonic acid (1,2,3,4-tetrahydro-isoquinolin-6-yl)-amide hydrochloride]: the Ki was determined as 5.7 nM. Besides, the inhibition at 0.01 µM (compound at 10 nM) amounted to 72.3%. For the same molecule, the inhibition at 0.1 µM (compound at 100 nM) was 85.5%.
The matching figures for `CCc1ccc(OC)c(S(=O)(=O)Nc2ccc3c(c2)CCNC3)c1` [Example 35, 5-Ethyl-2-methoxy-N-(1,2,3,4-tetrahydro-isoquinolin-6-yl)-benzene sulfonamide hydrochloride]: 14.2 ± 1.5 nM, 48.8% and 81.6%.
The matching figures for `O=S(=O)(Nc1ccc2c(c1)CCNC2)c1cccc2c(Cl)cccc12` [Example 42, 5-Chloro-naphthalene-1-sulfonic acid (1,2,3,4-tetrahydro-isoquinolin-6-yl)-amide hydrochloride]: 9.3 ± 2.2 nM, 78.2% and 88.9%.
With `CN1CCc2ccc(NS(=O)(=O)c3c(Cl)nc4sccn34)cc2C1` [Example 53, 6-Chloro-imidazo[2,1-b]thiazole-5-sulfonic acid (2-methyl-1,2,3,4-tetrahydro-isoquinolin-7-yl)-amide hydrochloride], the Ki was 3.8 ± 1 nM. In addition, where the note is “compound at 10 nM”, the inhibition at 0.01 µM stood at 55.4%. The inhibition at 0.1 µM (compound at 100 nM) amounted to 82.8%.
The matching figures for `O=S(=O)(Nc1ccc2c(c1)CNCC2)c1c(Cl)nc2sccn12` [Example 54, 6-Chloro-imidazo[2,1-b]thiazole-5-sulfonic acid (1,2,3,4-tetrahydro-iso-quinolin-7-yl)-amide hydrochloride]: 10.7 ± 4.8 nM, 81% and 91.9%.
As to `Cc1ccc(S(=O)(=O)Nc2ccc3c(c2)CNCC3)c2ccccc12` [Example 55, 4-Methyl-naphthalene-1-sulfonic acid (1,2,3,4-tetrahydro-isoquinolin-7-yl)-amide hydrochloride], the Ki came out at 3.8 ± 1.2 nM. Also, the inhibition at 0.01 µM (compound at 10 nM) is 82.3%. Further, where the note is “compound at 100 nM”, the inhibition at 0.1 µM was found to be 84.9%.
In the case of `Cc1ccc(S(=O)(=O)Nc2ccc3c(c2)CN(C)CC3)c2ccccc12` [Example 56, 4-Methyl-naphthalene-1-sulfonic acid (2-methyl-1,2,3,4-tetrahydro-isoqui-nolin-7-yl)-amide hydrochloride], the Ki turned out to be 10.3 nM. Also, the inhibition at 0.01 µM (compound at 10 nM) is 86.8%. Besides, the inhibition at 0.1 µM (compound at 100 nM) was 92.8%.
Take `Cc1c(S(=O)(=O)Nc2ccc3c(c2)CNCC3)sc2ccc(Cl)cc12` [Example 60, 5-Chloro-3-methyl-benzo[b]thiophene-2-sulfonic acid (1,2,3,4-tetrahydro-isoquinolin-7-yl)-amide hydrochloride]: the inhibition constant (Ki) amounted to 49.4 ± 8.2 nM. Under “compound at 10 nM”, the inhibition at 0.01 µM amounted to 44.8%. In addition, the inhibition at 0.1 µM (compound at 100 nM) was found to be 65.1%.
Regarding `O=S(=O)(Nc1ccc2c(c1)CNCC2)c1cccc2ccccc12` [Example 61, Naphthalene-1-sulfonic acid (1,2,3,4-tetrahydro-isoquinolin-7-yl)-amide hydrochloride], the Ki was 3.2 ± 0.4 nM. Moreover, for the setting “compound at 10 nM”, the inhibition at 0.01 µM is 78.6%. Moreover, the inhibition at 0.1 µM (compound at 100 nM) was found to be 85.5%.
On to `O=S(=O)(Nc1ccc2c(c1)CNCC2)c1ccccc1-c1ccccc1` [Example 62, Biphenyl-2-sulfonic acid (1,2,3,4-tetrahydro-isoquinolin-7-yl)-amide hydrochloride], for which the Ki was 2.4 ± 0.5 nM. For the setting “compound at 10 nM”, the inhibition at 0.01 µM is 89%. The inhibition at 0.1 µM (compound at 100 nM) worked out at 86.4%.
The matching figures for `Cc1c(S(=O)(=O)Nc2ccc3c(c2)CNCC3)sc2ccc(F)cc12` [Example 64, 5-Fluoro-3-methyl-benzo[b]thiophene-2-sulfonic acid (1,2,3,4-tetrahydro-isoquinolin-7-yl)-amide hydrochloride]: 55.8 ± 24.1 nM, 41.9% and 66.9%.
For `O=S(=O)(Nc1ccc2c(c1)CNCC2)c1cccc2nonc12` [Example 72, Benzo[1,2,5]oxadiazole-4-sulfonic acid (1,2,3,4-tetrahydro-isoquinolin-7-yl)-amide hydrochloride], the Ki is 54.6 nM. Further, the inhibition at 0.01 µM (compound at 10 nM) was determined as 45.5%. Under “compound at 100 nM”, the inhibition at 0.1 µM was determined as 64.7%.
On the same counts, the results for `Cc1ccc2nsnc2c1S(=O)(=O)Nc1ccc2c(c1)CNCC2` [Example 76, 5-Methylbenzo[1,2,5] thiadiazole-4-sulfonic acid (1,2,3,4-tetrahydro-isoquinolin-7-yl)-amide hydrochloride] are 19.2 ± 2.4 nM, 73.1% and 83.2%.
For `O=S(=O)(Nc1ccc2c(c1)CNCC2)c1csc2ccccc12` [Example 78, Benzo[b]thiophene-3-sulfonic acid (1,2,3,4-tetrahydro-isoquinolin-7-yl)-amide hydrochloride], the Ki worked out at 2.1 nM. Moreover, where the note is “compound at 10 nM”, the inhibition at 0.01 µM is 77.5%. The inhibition at 0.1 µM (compound at 100 nM) is 85.8%.
Turning to `O=S(=O)(Nc1ccc2c(c1)CNCC2)c1ccc(F)c2ccccc12` [Example 80, 4-Fluoro-naphthalene-1-sulfonic acid (1,2,3,4-tetrahydro-isoquinolin-7-yl)-amide hydrochloride], the Ki was determined as 6.5 ± 0.5 nM. Also, the inhibition at 0.01 µM (compound at 10 nM) amounted to 70%. Besides, for the setting “compound at 100 nM”, the inhibition at 0.1 µM stood at 83.6%.
The matching figures for `O=S(=O)(Nc1ccc2c(c1)CNCC2)c1ccc(Cl)c2ccccc12` [Example 81, 4-Chloro-naphthalene-1-sulfonic acid (1,2,3,4-tetrahydro-isoquinolin-7-yl)-amide hydrochloride]: 9.4 ± 3.7 nM, 70.3% and 84.1%.
The matching figures for `CCc1ccc(OC)c(S(=O)(=O)Nc2ccc3c(c2)CNCC3)c1` [Example 86, 5-Ethyl-2-methoxy-N-(1,2,3,4-tetrahydro-isoquinolin-7-yl)-benzenesulfonamide hydrochloride]: 6.1 ± 0.7 nM, 78.9% and 88.4%.
`O=S(=O)(Nc1ccc2c(c1)CCNC2)c1ccc2ccccc2c1` [Example 153, Naphthalene-2-sulfonic acid (1,2,3,4-tetrahydro-isoquinolin-6-yl)-amide]: the Ki turned out to be 8.7 ± 0.4 nM. Under “compound at 10 nM”, the “Binding % [10 nM]” value was 52.9%. The “Binding % [100 nM]” value (compound at 100 nM) came out at 88.2%.
In the case of `O=S(=O)(Nc1ccc2c(c1)CNCC2)c1cccc2c(Cl)cccc12` [Example 154, 5-Chloro-naphthalene-1-sulfonic acid (1,2,3,4-tetrahydro-isoquinolin-7-yl)-amide Hydrochloride], the Ki came out at 39.7 ± 7.4 nM. Besides, the inhibition at 0.01 µM (compound at 10 nM) came to 65.7%. Besides, the inhibition at 0.1 µM (compound at 100 nM) is 85.1%.
